Measured values from patent US12590123B2, “Compounds and methods for treating cancer, viral infections, and allergic conditions” (Washington University, priority 2019, dated 2026).
pEC50: −log10 of the molar value. Starred links: 1 amine or outer side, 2 acyl side, 3 side chain; linkers in the order of their positions; H or OH if unused. Positions of bridges follow the written chain, without caps; N, C: chain ends. Non-standard residues stand in square brackets, D forms with d. Residues, ends and D or L forms follow the SMILES beside them. X6 = N=C(N)NCCC[C@H](N[*:1])C(=O)c1nc2ccc(C(=O)[*:2])cc2s1

Key:
[1] = target: T1, matriptase (Homo sapiens, UniProt Q9Y5Y6); test: Fluorescent kinetic enzyme assay of matriptase activity (Boc-QAR-AMC); type: biochemical; conditions: Table 2; read-out: Matriptase (IC50 nM)
T1 construct: purchased R&D Systems 3946-SE-010
T1 sequence (Q9Y5Y6 615-855 limits assumed): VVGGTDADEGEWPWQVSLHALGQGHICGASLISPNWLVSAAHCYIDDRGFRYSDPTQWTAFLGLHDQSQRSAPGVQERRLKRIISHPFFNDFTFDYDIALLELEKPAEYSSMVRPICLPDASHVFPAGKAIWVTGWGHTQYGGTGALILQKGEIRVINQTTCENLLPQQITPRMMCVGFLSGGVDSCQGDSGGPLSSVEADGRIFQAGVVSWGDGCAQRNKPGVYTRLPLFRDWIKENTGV

[2] = target: recombinant thrombin (Homo sapiens, UniProt P00734); test: Chromogenic kinetic enzyme assay of thrombin (S2238); type: biochemical; conditions: Table 2; chromogenic assay; read-out: Thrombin* (IC50 nM)
Description: Using GraphPad Prism (GraphPad Software, San Diego, CA), a four-parameter curve fit was used to determine the inhibitor IC50s from a plot of the mean reaction velocity versus the inhibitor concentration. The IC50 values represent the average of three or more separate experimental determinations. Apparent Ki values were calculated from the IC50 values using the Cheng and Prusoff equation (Ki=IC50/(1+[S]/Km).
Using GraphPad Prism version 6.04 software program, (GraphPad Software, San Diego, CA, graphpad.com), a four parameter curve fit was used to determine the inhibitor IC50s from a plot of the mean reaction velocity versus the inhibitor concentration.
Fluorescent inhibitor and chromogenic proteolytic assays were performed for compounds prepared in Example 11 in general accordance with the procedures described in Example 9.

[3] = target: T2, activated hepsin (Homo sapiens, UniProt P05981); test: Fluorescent kinetic enzyme assay of hepsin activity (Boc-QAR-AMC); type: biochemical; conditions: Table 2; read-out: Hepsin (IC50 nM)
T2 construct: purchased R&D Systems 4776-SE-010
Description: After thirty minutes of incubation at room temperature, Boc-QLR-AMC substrate was added (HGFA assay) or Boc-QAR-AMC substrate (matriptase, and hepsin assays). […] From a plot of the mean reaction velocity versus the inhibitor concentration, a non-linear four parameter curve fit was performed using GraphPad Prism (GraphPad Software, San Diego, CA) to determine inhibitor IC50s. The IC50 values were determined from the average of three or more separate experimental determinations. Apparent Ki values were calculated using the Cheng and Prusoff equation (Ki=IC50/(1+[S]/Km).
Inhibitors were pre-incubated with protease followed by the addition of the substrate. Inhibition of substrate proteolysis derived fluorescence was monitored kinetically over a period of one hour.

[4] = target: Factor Xa (Homo sapiens, UniProt P00742); test: Chromogenic kinetic enzyme assay of Factor Xa (S2222); type: biochemical; conditions: Table 2; chromogenic assay; read-out: Factor Xa* (IC50 nM)
[5] = target: T3, recombinant HGFA serine protease domain (Homo sapiens, UniProt Q04756); test: Fluorescent kinetic enzyme assay of HGFA activity (Boc-QLR-AMC); type: biochemical; conditions: Table 2; read-out: HGFA (IC50 nM)
T3 construct: His6 tag (N); seven amino acid spacer plus TEV cleavage site (N); made in house; host or cells: High 5 insect cells (baculovirus; Sf9 for virus production)
T3 sequence (Q04756 373-655): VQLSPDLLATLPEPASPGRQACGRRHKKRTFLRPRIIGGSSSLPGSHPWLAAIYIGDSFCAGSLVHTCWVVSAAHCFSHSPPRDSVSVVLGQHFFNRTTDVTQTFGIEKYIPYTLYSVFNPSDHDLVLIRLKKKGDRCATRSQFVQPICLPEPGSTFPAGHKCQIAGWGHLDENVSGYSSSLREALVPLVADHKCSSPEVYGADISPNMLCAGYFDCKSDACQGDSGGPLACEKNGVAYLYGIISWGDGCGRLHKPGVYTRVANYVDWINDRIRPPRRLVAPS
From the text: The compounds prepared in Examples 1 to 8 were subjected to a series of inhibitions studies. The compounds were first tested in an HGFA enzymatic assay using the fluorogenic substrate Boc-QLR-AMC with a recombinant form of the HGFA serine protease domain.
This PCR product was cloned into the SfoI-HindIII sites of a modified pFastBac HT baculovirus expression vector (Addgene, Cambridge, MA). This vector contains a six amino His tag followed by a seven amino spacer and a seven amino acid TEV cleavage site placed immediately downstream of the honey bee melittin signal peptide. Using a modified Bac to Bac Expression System (Life Technologies, Carlsbad, CA), recombinant HGFA bacmids were obtained by transforming DH10Bac Escherichia coli cells. To obtain HGFA containing baculovirus, purified bacmids were transfected into Sf9 insect cells. After 5 days in culture at 27° C., media was harvested from transfected Sf9 cells. This media was used to prepare baculovirus infected insect cells (BIICs). These BIIICs were used to infect High 5 insect cells. Four days post infection, media was harvested, and recombinant protein was prepared as follows. Media was chilled to 4° C. and spun at 4000×g for 20 minutes (all subsequent steps were performed at 4° C. unless noted). Clarified media was passed first through a Whatman GF/B 1 um (#1821-047, GE Healthcare Life Sciences, Piscataway, NJ) and then a 0.22 μm PES membrane (#99955, TPP Techno Plastic Products AG, Trasadingen, Switzerland) and then concentrated using a Pall Centramate tangential flow system and Centramate T-series Cassette (#OS010T12, Pall Corporation, Port Washington, NY). Concentrated media was then buffer exchanged in two steps, five volumes of 50 mM Na-phosphate, 500 mM NaCl, pH 6.2, followed by five volumes of 50 mM Na-phosphate, 500 mM NaCl, pH 7.5. […] After mixing this slurry for 12 hours, nickel agarose beads were allowed to settle by gravity and then loaded into a column. Beads were washed with buffer (25 mM Na-phosphate, 500 mM NaCl, 25 mM imidazole, pH 8) and the bound protein eluted using (25 mM Na-phosphate, 500 mM NaCl, 250 mM imidazole, pH 8). Using a Amicon Ultra-4 Centrifugal filters (#UFC801008, Merck Millipore, Ltd., Tullagreen, Ireland), peak protein fractions were concentrated and run over a Superdex-200 10/300 GL column (GE Healthcare Life Sciences, Piscataway, NJ) in 10 mM Tris, 200 mM NaCl, 0.2 mM EDTA, pH 8. HGFA containing fractions were pooled, concentrated, made 50% glycerol, and stored at minus 20° C. Protein was quantitated using a modified Lowry protein assay (#500-0006, Bio-Rad Laboratories, Hercules, CA) and specific activity determined using Boc-QLR-AMC substrate.
Fluorescent kinetic enzyme assays of HGFA, matriptase, and hepsin activity: Compounds (0-20 μM final concentration in reaction) were diluted in DMSO (2% DMSO final concentration in reaction) and then mixed with either recombinant HGFA serine protease domain, matriptase (#3946-SE-010, R&D Systems, Minneapolis, Minnesota), or activated hepsin* (#4776-SE-010, R&D Systems, Minneapolis, Minnesota) in black 384 well plates (Corning #3575. Coming, NY). The final assay concentration for HGFA, matriptase, and hepsin, were 6.25 nM, 0.2 nM, and 0.3 nM, respectively in TNC buffer (25 mM Tris, 150 mM NaCl, 5 mM CaCl2, 0.01% Triton X-100, pH 8). After thirty minutes of incubation at room temperature, Boc-QLR-AMC substrate was added (HGFA assay) or Boc-QAR-AMC substrate (matriptase, and hepsin assays). Fluorescence (excitation at 380 nm and emission at 460 nm) was kinetically measured at room temperature over a 1 hour time period using a Biotek Synergy 2 plate reader (Winnoski, VT). From a plot of the mean reaction velocity versus the inhibitor concentration, a non-linear four parameter curve fit was performed using GraphPad Prism (GraphPad Software, San Diego, CA) to determine inhibitor IC50s. The IC50 values were determined from the average of three or more separate experimental determinations. […]

[6] = system: VSVpp (SARS-2-S) entry into TMPRSS2-positive Calu-3 cells

T2 sequence (P05981 163-417 limits assumed): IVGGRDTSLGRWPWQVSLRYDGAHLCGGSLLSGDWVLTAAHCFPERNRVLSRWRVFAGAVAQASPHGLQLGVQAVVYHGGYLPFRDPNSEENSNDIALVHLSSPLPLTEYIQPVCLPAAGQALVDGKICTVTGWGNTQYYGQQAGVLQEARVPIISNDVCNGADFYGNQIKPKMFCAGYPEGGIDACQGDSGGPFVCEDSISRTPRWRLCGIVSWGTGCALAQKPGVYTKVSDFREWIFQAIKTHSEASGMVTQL
T2 sequence (P05981 1-162 partner limits assumed): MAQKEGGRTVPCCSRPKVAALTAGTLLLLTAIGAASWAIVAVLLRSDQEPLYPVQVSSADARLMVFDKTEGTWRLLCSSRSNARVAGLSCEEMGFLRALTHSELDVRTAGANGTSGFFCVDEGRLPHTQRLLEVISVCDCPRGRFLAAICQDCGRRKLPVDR
Chain of Factor Xa (P00742 235-488 limits assumed): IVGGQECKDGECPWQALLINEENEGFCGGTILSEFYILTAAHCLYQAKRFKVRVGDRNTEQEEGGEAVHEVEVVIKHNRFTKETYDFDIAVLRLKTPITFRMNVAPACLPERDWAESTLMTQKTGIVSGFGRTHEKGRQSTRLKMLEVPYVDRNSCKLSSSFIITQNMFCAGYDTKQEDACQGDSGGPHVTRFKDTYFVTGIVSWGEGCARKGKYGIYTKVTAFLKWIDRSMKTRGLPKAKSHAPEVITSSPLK
Chain of Factor Xa (P00742 41-179 partner limits assumed): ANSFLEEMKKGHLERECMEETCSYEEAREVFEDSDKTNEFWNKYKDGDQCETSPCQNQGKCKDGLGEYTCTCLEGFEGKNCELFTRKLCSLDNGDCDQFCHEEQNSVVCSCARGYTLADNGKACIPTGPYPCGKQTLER

SMILES	IC50 [1] [nM]	IC50 [2] [nM]	IC50 [3] [nM]	IC50 [4] [nM]	IC50 [5] [nM]	Calu-3 EC50 (nM) [6]	pEC50 [6]
CC(=O)N[C@H]1CC(=O)N(C)CCCC[C@@H](C(=O)N[C@@H](CCCNC(=N)N)C(=O)c2nc3ccccc3s2)NC(=O)[C@H](CC(C)C)NC1=O [VD4192C1]	111	> 20000	0.97	> 20000	7730		
CC(=O)N[C@H]1CC(=O)NCCCC[C@@H](C(=O)N[C@@H](CCCNC(=N)N)C(=O)c2nc3ccccc3s2)NC(=O)[C@H](CCC(N)=O)NC1=O [VD3152, (3S,6S,14S)-6-acetamido-3-(3-amino-3-oxopropyl)-N—((S)-1-(benzo[d]thiazol-2-yl)-5-guanidino-1-oxopentan-2-yl)-2,5,8-trioxo-1,4,9-triazacyclotetradecane-14-carboxamide]						almost equivalent activity	6.86
CC(=O)N[C@@H](CC(C)C)C(=O)N[C@@H](CC(C)C)C(=O)N[C@@H](CCCNC(=N)N)C(=O)c1nccs1 [ZFH6201, Ac-LLR-kt]							6.46
CC(=O)N[C@H]1CC(=O)NCCCC[C@@H](C(=O)N[C@@H](CCCNC(=N)N)C(=O)c2nc3ccccc3s2)NC(=O)[C@H](CC(N)=O)NC1=O [VD3166, (3S,6S,14S)-6-acetamido-3-(2-amino-2-oxoethyl)-N—((S)-1-(benzo[d]thiazol-2-yl)-5-guanidino-1-oxopentan-2-yl)-2,5,8-trioxo-1,4,9-triazacyclotetradecane-14-carboxamide]	3.8	> 20000	10.1	4650	15800		
CC(=O)N[C@@H](CCCCN)C(=O)N[C@@H](CCC(N)=O)C(=O)N[C@@H](CC(C)C)C(=O)N[C@@H](CCCNC(=N)N)C(=O)c1nc2ccccc2s1 [ZFH7006, Ac-KQLR-kbt]							7.11
CC(=O)N[C@H]1CC(=O)NCCCC[C@@H](C(=O)N[C@@H](CCCNC(=N)N)C(=O)c2nc3ccccc3s2)NC(=O)CNC1=O [VD3174, (6S,14S)-6-acetamido-N—((S)-1-(benzo[d]thiazol-2-yl)-5-guanidino-1-oxopentan-2-yl)-2,5,8-trioxo-1,4,9-triazacyclotetradecane-14-carboxamide]	6.3	> 20000	5.9	6180	4310		
CC(=O)N[C@H]1CC(=O)NCCCC[C@@H](C(=O)N[C@@H](CCCNC(=N)N)C(=O)c2nc3ccc(C(=O)N[C@@H](C(N)=O)C(C)C)cc3s2)NC(=O)[C@H](CC(C)C)NC1=O [VD3056, 2-(((3S,6S,14S)-6-acetamido-3-isobutyl-2,5,8-trioxo-1,4,9-triazacyclotetradecane-14-carbonyl)-L-arginyl)-N—((R)-1-amino-3-methyl-1-oxobutan-2-yl)benzo[d]thiazole-6-carboxamide] (Ac-DLK[X6][dV]-NH2; lactam 1-3)	11.2	33.9	5.4	118	5380		
CC(=O)N[C@H]1CCCCNC(=O)CCC(C(=O)N[C@@H](CCCNC(=N)N)C(=O)c2nc3ccccc3s2)NC(=O)[C@H](CCCNC(=N)N)NC1=O (stereo partly drawn) [VD2109B]	0.07	> 20000	0.04	155	2520		
CC(=O)N[C@H]1CC(=O)NCCCC[C@@H](C(=O)N[C@@H](CCCNC(=N)N)C(=O)c2nc3ccccc3s2)NC(=O)[C@H](C(C)C)NC1=O [VD3167, (3S,6S,14S)-6-acetamido-N—((S)-1-(benzo[d]thiazol-2-yl)-5-guanidino-1-oxopentan-2-yl)-3-isopropyl-2,5,8-trioxo-1,4,9-triazacyclotetradecane-14-carboxamide]	3.2	> 20000	7.8	1510	1830		
CC(=O)N[C@H](Cc1c[nH]c2ccccc12)C(=O)N[C@@H](Cc1ccccc1)C(=O)N[C@@H](CCCNC(=N)N)C(=O)c1nc2ccccc2s1 [PK-1-89, Ac-dWFR-kbt]							7.49
CC(=O)N[C@H]1CC(=O)N(C)CCCC[C@@H](C(=O)N[C@@H](CCCNC(=N)N)C(=O)c2nc3ccccc3s2)NC(=O)[C@H](CC(C)C)NC1=O [VD4192C2]	23.5	> 20000	1.75	18500	8560		
CC(=O)N[C@H]1Cc2ccc(cc2)OCCCC[C@@H](C(=O)N[C@@H](CCCNC(=N)N)C(=O)c2nc3ccccc3s2)NC(=O)[C@@H](Cc2c[nH]c3ccccc23)NC1=O [VD4162A]	30.8	> 20000		7470	52		
CC(=O)N[C@H]1CC(=O)NCCCC[C@@H](C(=O)N[C@@H](CCCNC(=N)N)C(=O)c2nc3ccccc3s2)NC(=O)[C@H]([C@H](C)O)NC1=O [VD3157, (3S,6S,14S)-6-acetamido-N—((S)-1-(benzo[d]thiazol-2-yl)-5-guanidino-1-oxopentan-2-yl)-3-((S)-1-hydroxyethyl)-2,5,8-trioxo-1,4,9-triazacyclotetradecane-14-carboxamide]	3.7	> 20000	5.8	13300	11800		
CC(=O)N[C@H]1CC(=O)N(C)CCCC[C@@H](C(=O)N[C@@H](CCCNC(=N)N)C(=O)c2nc3ccccc3s2)NC(=O)[C@H](CC(C)C)NC1=O [VD4192B]	1.1	17100	14.9	678	12300		
